US8309558B2, “Compounds for the treatment of hepatitis C” (Bristol-Myers Squibb Company, priority 2008, dated 2012)
Where two headings read alike, the source gives them in different places.

Tests used:
HCV replicon cells = assay: HCV replicon FRET / luciferase assay (96-well plates); type: cell-based; details: Hepatitis C virus, HCV replicon, read-out: EC50
Procedure, shortened: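 Replicon cells (with or without Renilla luciferase reporter) incubated with titrated compounds at 37 °C; Alamar blue read for cytotoxicity first. NS3 protease activity read kinetically with 20 μM EDANS/DABCYL FRET peptide in lysis reagent plus 150 mM NaCl (ex 340/em 490), or by Dual-Glo luciferase. EC50 = 50% signal reduction after protease-inhibitor background subtraction.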

[1] = target: T1, HCV NS5B RdRp genotype 1b (Hepatitis C virus genotype 1b, UniProt Q9WMX2); assay: Standard HCV NS5B RdRp enzyme assay; type: biochemical; details: HCV NS5B RdRp genotype 1b, read-out: IC50
T1 construct: The protein was expressed with an 18 amino acid C-terminal truncation to enhance the solubility; made in house; host or cells: E. coli BL21(DE3), pET21a vector
T1 sequence (Q9WMX2 2420-2992): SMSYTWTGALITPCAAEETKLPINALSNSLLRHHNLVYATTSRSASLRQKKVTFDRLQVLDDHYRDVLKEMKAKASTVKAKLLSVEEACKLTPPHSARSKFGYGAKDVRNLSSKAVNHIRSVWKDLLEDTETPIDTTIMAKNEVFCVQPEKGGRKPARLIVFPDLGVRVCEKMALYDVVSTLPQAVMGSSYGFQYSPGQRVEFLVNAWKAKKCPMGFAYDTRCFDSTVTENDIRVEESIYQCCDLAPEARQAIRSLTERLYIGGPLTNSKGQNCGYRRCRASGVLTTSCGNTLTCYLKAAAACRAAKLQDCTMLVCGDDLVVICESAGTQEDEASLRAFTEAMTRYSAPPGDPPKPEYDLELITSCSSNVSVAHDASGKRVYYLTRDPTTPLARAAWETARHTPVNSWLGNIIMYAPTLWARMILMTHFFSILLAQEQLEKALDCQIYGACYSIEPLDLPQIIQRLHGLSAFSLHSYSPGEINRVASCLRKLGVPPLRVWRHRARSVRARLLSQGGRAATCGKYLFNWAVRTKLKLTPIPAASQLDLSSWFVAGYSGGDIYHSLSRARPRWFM
Procedure, shortened: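 C-terminally truncated (18 aa) genotype 1b NS5B from E. coli, 28 nM, with 6 nM polyA template, 180 nM biotinylated oligo-dT12 primer and 3H-UTP (0.29 μM total UTP). Hepes pH 7.5 buffer with 2% DMSO; 60 min at 30° C. EDTA stop, SPA read-out; IC50 from seven concentrations by four-parameter fit.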

Structure (SMILES)	EC50 (HCV replicon cells; Table 1a) [nM]	IC50 ([1]; Table 1a) [nM]	EC50 (HCV replicon cells; Table 1b) [nM]	IC50 ([1]; Table 1b) [nM]	other results
CCOC(=O)CC(C)NC(=O)c1cccc(-c2ccc3oc(-c4ccc(F)cc4)c(C(=O)NC)c3c2)c1 (centres unmarked)	250 to 1000	< 250			
CNC(=O)c1c(-c2ccc(F)cc2)oc2ccc(-c3cccc(C(=O)NC(C)(C)C(F)(F)F)c3)cc12	< 250	< 250			
CNC(=O)c1c(-c2ccc(F)cc2)oc2ccc(-c3cc(C(=O)NCC(C)C)ccc3F)cc12	< 250	< 250			
CNC(=O)c1c(-c2ccc(F)cc2)oc2ccc(-c3cc(C(=O)NC4(c5nc(C6CC6)no5)CC4)ccc3C)cc12			< 250	< 250	
CNC(=O)c1c(-c2ccc(F)cc2)oc2ccc(-c3ccc(C(=O)NCC(C)C)cc3)cc12	250 to 1000	> 10000			
CNC(=O)c1c(-c2ccc(F)cc2)oc2ccc(-c3cccc(C(=O)NCc4cccnc4)c3)cc12	250 to 1000	< 250			
CNC(=O)c1c(-c2ccc(F)cc2)oc2cc([N+](=O)[O-])c(-c3cc(C(=O)NCC(C)C)ccc3OC)cc12	250 to 1000	250 to 1000			
CNC(=O)c1c(-c2ccc(F)cc2)oc2ccc(-c3cccc(S(=O)(=O)N4CCOCC4)c3)cc12	> 10000	> 10000			
CNC(=O)c1c(-c2ccc(F)cc2)oc2ccc(-c3cc(C(=O)NCC(C)C)ccc3OCCCn3cccc3)cc12			250 to 1000	1000 to 10000	
CNC(=O)c1c(-c2ccc(F)cc2)oc2ccc(-c3cccc(-c4nc(C(C)C)no4)c3)cc12			250 to 1000	> 1390	
CNC(=O)c1c(-c2ccc(F)cc2)oc2ccc(-c3cccc(C(=O)Nc4ccon4)c3)cc12	1000 to 10000	250 to 1000			
CNC(=O)c1c(-c2ccc(F)cc2)oc2ccc(-c3cccc(C(=O)N[C@H]4C[C@@H]4c4ccccc4)c3)cc12	< 250	> 400			
CNC(=O)c1c(-c2ccc(F)cc2)oc2ccc(-c3cccc(C(=O)NC(C)(C)c4ccncc4)c3)cc12			< 250	< 250	
CNC(=O)c1c(-c2ccc(F)cc2)oc2ccc(-c3ccc(-c4cnn(C)c4)c(C(=O)NCC(C)C)c3)cc12			< 250	< 250	
CNC(=O)c1c(-c2ccc(F)cc2)oc2ccc(-c3ccc(C(=O)O)cc3)cc12	1000 to 10000	250 to 1000			
CNC(=O)c1c(-c2ccc(F)cc2)oc2ccc(-c3cc(C(=O)NC4(c5ncc(C)s5)CC4)ccc3C)cc12 [drawing 625]					EC50 (HCV replicon cells; 24 h, Table 1d (class symbols)): 1 to 250 nM; IC50 ([1]; Table 1d (class symbols)): < 20 nM
CNC(=O)c1c(-c2ccc(F)cc2)oc2ccc(-c3cccc(C(=O)Nc4cnccn4)c3)cc12	< 250	< 250			
CNC(=O)c1c(-c2ccc(F)cc2)oc2ccc(-c3cccc(C(=O)NC(C)(C)CC(C)=O)c3)cc12	250 to 1000	250 to 1000			
CNC(=O)c1c(-c2ccc(F)cc2)oc2cc(N(CCO)S(C)(=O)=O)c(-c3cccc(C(=O)NC(C)(C)C)c3)cc12			< 250	< 250	
CNC(=O)c1c(-c2ccc(F)cc2)oc2ccc(-c3ccc(-c4ccc(C(N)=O)cc4)c(C(=O)NCC(C)C)c3)cc12			> 10000	< 250	
CNC(=O)c1c(-c2ccc(F)cc2)oc2ccc(-c3cccc(C#N)c3)cc12	250 to 1000	> 10000			
CCC(CC)NC(=O)c1cccc(-c2ccc3oc(-c4ccc(F)cc4)c(C(=O)NC)c3c2)c1	< 250	< 250			
CNC(=O)c1c(-c2ccc(F)cc2)oc2ccc(-c3ccc(C(=O)N4CCC[C@H]4CO)cc3)cc12	> 10000	> 10000			
CNC(=O)c1c(-c2ccc(F)cc2)oc2ccc(-c3cc(C(=O)NC4(c5coc(C)n5)CC4)ccc3C)cc12			< 250	< 250	
CNC(=O)c1c(-c2ccc(F)cc2)oc2ccc(-c3cccc(C(=O)NCc4ccccc4)c3)cc12	< 250	< 250			
CNC(=O)c1c(-c2ccc(F)cc2)oc2ccc(-c3cc(C(=O)NC4(c5nnc(C)[nH]5)CC4)ccc3C)cc12			< 250	< 250	

Structure (SMILES)	EC50 (HCV replicon cells; Table 1a) [nM]	IC50 ([1]; Table 1a) [nM]	EC50 (HCV replicon cells; Table 1b) [nM]	IC50 ([1]; Table 1b) [nM]	other results
CNC(=O)c1c(-c2ccc(F)cc2)oc2ccc(-c3cccc(C(=O)NC(C)(C)C(=O)N(C)C)c3)cc12	< 250	< 250			
CNC(=O)c1c(-c2ccc(F)cc2)oc2ccc(-c3cc(OCCc4ccncc4)cc(C(=O)NCC(C)C)c3)cc12			> 500	< 250	
CNC(=O)c1c(-c2ccc(F)cc2)oc2cc([N+](=O)[O-])c(-c3cccc(C(=O)O)c3)cc12	> 10000	1000 to 10000			
CNC(=O)c1c(-c2ccc(F)cc2)oc2ccc(-c3cccc(C(=O)NC(C)(C)C(=O)NCC#N)c3)cc12	250 to 1000	< 250			
CNC(=O)c1c(-c2ccc(F)cc2)oc2ccc(-c3ccc(C(=O)N(C)CC(=O)N(C)C)cc3)cc12	> 10000	> 10000			
CCOC(=O)C(NC(=O)c1cccc(-c2ccc3oc(-c4ccc(F)cc4)c(C(=O)NC)c3c2)c1)C(C)C (centres unmarked)	1000 to 10000	250 to 1000			
CNC(=O)c1c(-c2ccc(F)cc2)oc2ccc(-c3cccc(C(=O)NC(C)(C)c4ccccc4)c3)c(N)c12	< 250	< 250			
CNC(=O)c1c(-c2ccc(F)cc2)oc2ccc(-c3cccc(C(=O)N4CC(C)OC(C)C4)c3)cc12 (centres unmarked)	1000 to 10000	1000 to 10000			
CNC(=O)c1c(-c2ccc(F)cc2)oc2ccc(-c3cc(C(=O)NCC(C)C)ccc3OC3CCC(N)C3)cc12 (centres unmarked)			< 250	< 250	
CNC(=O)c1c(-c2ccc(F)cc2)oc2ccc(-c3cccc(C(=O)NC(C)(C)C(=O)Nc4cc(C)[nH]n4)c3)cc12			< 250	< 250	
CNC(=O)c1c(-c2ccc(F)cc2)oc2ccc(-c3cc(C(=O)NCC(C)C)ccc3OCCN3CCCC3)cc12			< 250	< 250	
CNC(=O)c1c(-c2ccc(F)cc2)oc2ccc(-c3cc(OCCn4cncn4)cc(C(=O)NCC(C)C)c3)cc12			1000 to 10000	250 to 1000	
CNC(=O)c1c(-c2ccc(F)cc2)oc2ccc(-c3cc(N)ccc3C)cc12			1000 to 10000	1000 to 10000	
CNC(=O)c1c(-c2ccc(F)cc2)oc2ccc(-c3cccc(C(=O)Nc4cc(C)no4)c3)cc12	1000 to 10000	1000 to 10000			
CNC(=O)c1c(-c2ccc(F)cc2)oc2ccc(-c3cc(C(=O)NC4(c5ccccn5)CC4)ccc3OCC(N)=O)cc12			< 250	< 250	
CNC(=O)c1c(-c2ccc(F)cc2)oc2ccc(-c3cccc(C(=O)NCc4cnc(C)cn4)c3)cc12	250 to 1000	250 to 1000			
CNC(=O)c1c(-c2ccc(F)cc2)oc2ccc(-c3cc(OCc4cccnc4)cc(C(=O)NCC(C)C)c3)cc12			1000 to 10000	1000 to 10000	
CNC(=O)c1c(-c2ccc(F)cc2)oc2ccc(-c3cccc(C(=O)NC(C)(C)C(=O)OC)c3)cc12	< 250	< 250			
CNC(=O)c1c(-c2ccc(F)cc2)oc2ccc(-c3cccc(C(=O)NC4(CO)CCCC4)c3)cc12	< 250	< 250			
CNC(=O)c1c(-c2ccc(F)cc2)oc2ccc(-c3cccc(C(=O)NC(C)(C)c4ccc(OC)cc4)c3)cc12	< 250	< 250			
CNC(=O)c1c(-c2ccc(F)cc2)oc2ccc(-c3ccc(CCC(=O)O)cc3)cc12	> 10000	1000 to 10000			
CNC(=O)c1c(-c2ccc(F)cc2)oc2ccc(-c3cc(C(=O)NCC(C)C)ccc3OCCN)cc12			< 250	< 250	
CNC(=O)c1c(-c2ccc(F)cc2)oc2cc(N(C)S(C)(=O)=O)c(-c3cccc(C(=O)NC(C)(C)c4ccccc4)c3)cc12			< 250	< 250	
CNC(=O)c1c(-c2ccc(F)cc2)oc2ccc(-c3cccc4[nH]ccc34)cc12	250 to 1000	> 10000			
CNC(=O)c1c(-c2ccc(F)cc2)oc2ccc(-c3cc(C(=O)NC4(c5ccn(C)n5)CC4)c(OC)cc3C)cc12			< 250	< 250	
CCOCCNC(=O)c1cccc(-c2ccc3oc(-c4ccc(F)cc4)c(C(=O)NC)c3c2)c1	250 to 1000	< 250			
